This is an account of results in patent publication US11312675B2, “Crystalline polymorphs of 1,6-dibromo-1,6-dideoxy-dulcitol” (Targent, LLC, priority 2015, dated 2022).

The structures appear in SMILES notation.

For data set [1] the following is noted: reported in the literature; cited from earlier work.
For data set [2] the following is noted: Kellner et al., Nature (1967); cited from earlier work.
The nature of data set [3]: Stability tests (storage, analysed by XRPD). It is filed as physicochemical. As for the experimental part: The sample was stored in the following conditions (a) 25° C. and 60% RH for 7 days and (b) 60° C. and 75% RH for 3 days. The samples were analyzed after the test by XRPD.
Data set [4] is described as follows: Thermogravimetric analysis (TGA). The following applies: heating from 25° C. to 450° C. at 10K/min. The data set is classed as physicochemical. The procedure:
The analysis was carried out using the Mettler Toledo Stare System with the following parameters. The sample was weighed in an aluminum pan hermetically sealed with an aluminum pierced cover. The analysis was performed heating the sample from 25° C. to 450° C. at 10K/min.

In the case of `O[C@H]([C@H](O)[C@@H](O)CBr)[C@H](O)CBr` [DBD, 1,6-dibromo-1,6-dideoxy-dulcitol], the solubility entry in data set [1] is listed as “poorly soluble”. For the same compound, the antitumor effect entry in data set [2] was “selective a vigorous antitumor effect”.
Turning to `O[C@H]([C@H](O)[C@@H](O)CBr)[C@H](O)CBr` [crystalline DBD polymorph, 1,6-dibromo-1,6-dideoxy-dulcitol], the “stability of the crystalline form (XRPD after storage)” value in data set [3] (25° C. and 60% RH for 7 days) is “stable”; in data set [3] (60° C. and 75% RH for 3 days), “stable”. Also, the “degradation of the sample (TGA profile)” value in data set [4] is “approximately 170 °C”.
